Measured values from ChEMBL document CHEMBL5518230, “Identification of a Novel Selective CDK9 Inhibitor for the Treatment of CRC: Design, Synthesis, and Biological Activity Evaluation” (J Med Chem, 2024).
The source made the active and inactive calls. The calls are words filed in the database; no cut-off is given here.

Tests used:
CDK9/cyclin T1 = CDK9/cyclin T1 (Homo sapiens, UniProt P50750); experiment: Inhibition of CDK9/Cyclin T1 (unknown origin) using PDKtide substrate incubated for 60 mins by ADP-Glo kinase assay; type: protein-complex assay
Chain of CDK9/cyclin T1 (O60563 whole entry): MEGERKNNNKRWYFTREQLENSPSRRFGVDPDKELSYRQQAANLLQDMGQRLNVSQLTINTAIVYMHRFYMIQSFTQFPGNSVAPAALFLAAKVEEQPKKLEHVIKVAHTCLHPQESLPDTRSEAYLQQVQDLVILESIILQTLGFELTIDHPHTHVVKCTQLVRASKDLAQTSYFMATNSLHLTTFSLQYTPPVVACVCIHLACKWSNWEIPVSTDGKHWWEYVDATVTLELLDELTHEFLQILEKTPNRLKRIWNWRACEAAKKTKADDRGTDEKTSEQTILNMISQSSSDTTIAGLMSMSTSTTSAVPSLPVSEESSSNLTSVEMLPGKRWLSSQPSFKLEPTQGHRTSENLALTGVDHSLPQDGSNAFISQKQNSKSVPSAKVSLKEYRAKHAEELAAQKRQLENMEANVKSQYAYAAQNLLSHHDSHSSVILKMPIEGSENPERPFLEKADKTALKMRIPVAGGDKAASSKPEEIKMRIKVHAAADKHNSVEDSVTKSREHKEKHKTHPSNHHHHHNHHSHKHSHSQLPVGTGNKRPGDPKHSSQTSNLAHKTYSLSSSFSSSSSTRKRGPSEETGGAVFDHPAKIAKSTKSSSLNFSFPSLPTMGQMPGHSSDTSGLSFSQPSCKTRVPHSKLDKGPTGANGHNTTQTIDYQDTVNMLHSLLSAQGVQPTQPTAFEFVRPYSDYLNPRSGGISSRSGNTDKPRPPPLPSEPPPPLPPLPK
Chain of CDK9/cyclin T1 (P50750 whole entry): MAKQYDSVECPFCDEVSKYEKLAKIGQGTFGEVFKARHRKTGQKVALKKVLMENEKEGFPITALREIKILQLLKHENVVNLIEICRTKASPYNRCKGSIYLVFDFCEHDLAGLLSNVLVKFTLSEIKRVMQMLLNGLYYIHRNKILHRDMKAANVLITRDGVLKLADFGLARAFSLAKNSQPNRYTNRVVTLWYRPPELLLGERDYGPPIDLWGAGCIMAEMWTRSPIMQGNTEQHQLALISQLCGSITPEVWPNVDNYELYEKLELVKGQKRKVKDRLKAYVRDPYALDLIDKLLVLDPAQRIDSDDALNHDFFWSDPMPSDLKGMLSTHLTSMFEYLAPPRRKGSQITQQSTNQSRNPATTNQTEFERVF

HCT-116 [1] = experiment: Growth inhibition of human HCT-116 cells incubated for 48 hrs by CCK-8 assay; type: functional
HT-29 = experiment: Growth inhibition of human HT-29 cells incubated for 48 hrs by CCK-8 assay; type: functional
[2] = target: CDK9/cyclin T1 (Homo sapiens) (UniProt O60563+P50750); experiment: Inhibition of CDK9/Cyclin T1 (unknown origin) using PDKtide substrate at 500 nM incubated for 60 mins by ADP-Glo kinase assay relative to control; type: protein-complex assay
[3] = target: Cyclin-dependent kinase 1 (Homo sapiens, UniProt P06493); experiment: Inhibition of CDK1 (unknown origin)
Chain of Cyclin-dependent kinase 1 (P06493 whole entry): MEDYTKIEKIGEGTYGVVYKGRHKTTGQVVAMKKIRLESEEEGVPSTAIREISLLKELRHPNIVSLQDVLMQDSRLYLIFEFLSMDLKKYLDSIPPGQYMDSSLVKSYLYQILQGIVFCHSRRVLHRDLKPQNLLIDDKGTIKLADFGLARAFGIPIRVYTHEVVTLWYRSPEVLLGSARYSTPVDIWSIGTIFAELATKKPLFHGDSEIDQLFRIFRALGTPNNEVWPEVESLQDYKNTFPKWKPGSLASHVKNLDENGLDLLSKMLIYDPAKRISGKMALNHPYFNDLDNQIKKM

[4] = target: Cyclin-dependent kinase 2 (Homo sapiens, UniProt P24941); experiment: Inhibition of CDK2 (unknown origin)
[5] = target: Cyclin-dependent kinase 4 (Homo sapiens, UniProt P11802); experiment: Inhibition of CDK4 (unknown origin)
Chain of Cyclin-dependent kinase 4 (P11802 whole entry): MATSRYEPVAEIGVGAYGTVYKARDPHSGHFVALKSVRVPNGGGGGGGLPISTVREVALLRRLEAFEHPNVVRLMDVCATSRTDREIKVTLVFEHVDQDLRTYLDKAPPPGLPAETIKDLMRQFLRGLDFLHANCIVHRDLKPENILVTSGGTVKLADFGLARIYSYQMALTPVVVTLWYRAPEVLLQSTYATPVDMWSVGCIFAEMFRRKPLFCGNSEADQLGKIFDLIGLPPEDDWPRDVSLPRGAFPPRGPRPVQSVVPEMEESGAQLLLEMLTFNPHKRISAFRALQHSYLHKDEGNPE

[6] = target: Cyclin-dependent kinase 5 (Homo sapiens, UniProt Q00535); experiment: Inhibition of CDK5 (unknown origin)
Chain of Cyclin-dependent kinase 5 (Q00535 whole entry): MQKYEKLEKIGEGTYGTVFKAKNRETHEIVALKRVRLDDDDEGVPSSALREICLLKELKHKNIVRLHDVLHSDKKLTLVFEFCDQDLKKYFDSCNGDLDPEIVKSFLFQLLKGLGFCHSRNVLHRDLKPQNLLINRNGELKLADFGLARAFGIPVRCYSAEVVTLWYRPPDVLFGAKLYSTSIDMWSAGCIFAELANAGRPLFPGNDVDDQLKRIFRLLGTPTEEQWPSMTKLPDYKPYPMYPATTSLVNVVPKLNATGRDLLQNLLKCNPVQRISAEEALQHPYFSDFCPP

[7] = target: Cyclin-dependent kinase 6 (Homo sapiens, UniProt Q00534); experiment: Inhibition of CDK6 (unknown origin)
[8] = target: Cyclin-dependent kinase 7 (Homo sapiens, UniProt P50613); experiment: Inhibition of CDK7 (unknown origin)
Chain of Cyclin-dependent kinase 7 (P50613 whole entry): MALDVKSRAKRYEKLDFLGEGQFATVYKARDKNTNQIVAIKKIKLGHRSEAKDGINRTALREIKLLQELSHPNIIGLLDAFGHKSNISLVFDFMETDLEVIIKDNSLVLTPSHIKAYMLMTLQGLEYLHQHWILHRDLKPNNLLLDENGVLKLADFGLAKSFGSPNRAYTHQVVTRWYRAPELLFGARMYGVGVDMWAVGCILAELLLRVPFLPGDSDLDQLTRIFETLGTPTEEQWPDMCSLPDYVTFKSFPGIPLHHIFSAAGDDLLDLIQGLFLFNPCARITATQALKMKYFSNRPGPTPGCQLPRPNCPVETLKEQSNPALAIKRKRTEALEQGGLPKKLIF

[9] = target: Cyclin-dependent kinase 8 (Homo sapiens, UniProt P49336); experiment: Inhibition of CDK8 (unknown origin)
Chain of Cyclin-dependent kinase 8 (P49336 whole entry): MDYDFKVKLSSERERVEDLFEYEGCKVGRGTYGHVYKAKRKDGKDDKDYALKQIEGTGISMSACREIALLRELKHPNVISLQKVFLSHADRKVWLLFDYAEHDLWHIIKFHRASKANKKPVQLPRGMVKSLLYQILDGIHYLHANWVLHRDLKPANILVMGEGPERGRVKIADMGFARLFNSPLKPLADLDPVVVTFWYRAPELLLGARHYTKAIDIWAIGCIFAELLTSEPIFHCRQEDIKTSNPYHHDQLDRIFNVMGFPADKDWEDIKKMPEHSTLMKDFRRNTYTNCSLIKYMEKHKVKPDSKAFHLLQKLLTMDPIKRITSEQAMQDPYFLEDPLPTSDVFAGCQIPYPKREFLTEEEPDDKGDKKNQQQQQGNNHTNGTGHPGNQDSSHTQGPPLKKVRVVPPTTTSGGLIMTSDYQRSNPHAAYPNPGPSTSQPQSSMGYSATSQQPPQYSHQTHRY

[10] = target: Cyclin-dependent kinase 9 (Homo sapiens, UniProt P50750); experiment: Inhibition of CDK9 (unknown origin)
Chain of Cyclin-dependent kinase 9 (P50750 whole entry): as the sequence (P50750 whole entry) above

[11] = target: Cyclin-dependent kinase 12 (Homo sapiens, UniProt Q9NYV4); experiment: Inhibition of CDK12 (unknown origin)
[12] = Half life in human liver microsomes at 100 uM measured upto 60 mins in presence of NADPH by LC-MS/MS analysis; type: ADME, Microsome
[13] = Intrinsic microsomal clearance in human liver microsomes at 100 uM measured upto 60 mins in presence of NADPH by LC-MS/MS analysis; type: ADME, Microsome; settings: read-out: CLH
[14] = Intrinsic clearance in human liver microsomes at 100 uM measured upto 60 mins in presence of NADPH by LC-MS/MS analysis; type: ADME, Microsome; settings: 1 h
[15] = Stability in human liver microsomes assessed as compound remaining at 100 uM measured upto 60 mins in presence of NADPH by LC-MS/MS analysis; type: ADME, Microsome; settings: read-out: Stability
[16] = Half life in human plasma measured upto 120 mins by LC-MS/MS analysis; type: ADME, cell-free
CYP1A2 = target: T1, CYP1A2 (Homo sapiens, UniProt P05177); experiment: Inhibition of CYP1A2 in human liver microsomes using alpha-naphthoflavone as […] at 10 uM preincubated for 10 mins followed by NADPH addition measured after 15 mins by LC-MS/MS analysis relative to control; type: ADME, Microsome; settings: time 25 min
T1 sequence (P05177 whole entry): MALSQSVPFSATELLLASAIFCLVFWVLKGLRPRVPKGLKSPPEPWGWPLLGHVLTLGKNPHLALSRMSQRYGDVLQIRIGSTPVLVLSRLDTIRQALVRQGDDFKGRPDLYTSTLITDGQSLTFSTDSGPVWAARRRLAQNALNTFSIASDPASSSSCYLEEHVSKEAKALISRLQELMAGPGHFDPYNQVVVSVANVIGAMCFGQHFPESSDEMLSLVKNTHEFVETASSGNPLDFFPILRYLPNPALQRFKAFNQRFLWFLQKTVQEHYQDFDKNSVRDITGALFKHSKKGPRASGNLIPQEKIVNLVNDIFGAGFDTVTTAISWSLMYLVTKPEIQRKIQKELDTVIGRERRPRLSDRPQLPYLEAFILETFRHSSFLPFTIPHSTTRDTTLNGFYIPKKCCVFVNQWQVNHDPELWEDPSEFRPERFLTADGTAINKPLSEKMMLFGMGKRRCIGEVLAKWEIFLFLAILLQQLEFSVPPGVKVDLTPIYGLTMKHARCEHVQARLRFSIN

CYP2C9 = CYP2C9 (Homo sapiens, UniProt P11712); experiment: Inhibition of CYP2C9 in human liver microsomes using sulfaphenazole as […] at 10 uM preincubated for 10 mins followed by NADPH addition measured after 15 mins by LC-MS/MS analysis relative to control; type: ADME, Microsome; settings: probe sulfaphenazole, time 25 min
Chain of CYP2C9 (P11712 whole entry): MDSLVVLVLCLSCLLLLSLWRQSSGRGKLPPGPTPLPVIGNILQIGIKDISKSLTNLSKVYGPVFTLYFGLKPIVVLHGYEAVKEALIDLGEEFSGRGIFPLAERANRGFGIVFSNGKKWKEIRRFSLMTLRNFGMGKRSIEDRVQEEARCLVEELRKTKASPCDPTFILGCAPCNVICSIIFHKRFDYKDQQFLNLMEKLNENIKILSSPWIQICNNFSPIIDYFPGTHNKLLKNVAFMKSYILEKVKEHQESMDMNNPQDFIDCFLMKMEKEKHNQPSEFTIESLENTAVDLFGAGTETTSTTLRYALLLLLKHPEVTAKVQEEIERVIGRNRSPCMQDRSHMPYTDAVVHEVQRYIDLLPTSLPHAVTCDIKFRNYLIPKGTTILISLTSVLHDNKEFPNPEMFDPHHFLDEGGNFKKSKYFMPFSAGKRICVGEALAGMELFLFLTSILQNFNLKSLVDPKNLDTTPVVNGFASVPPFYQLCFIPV

CYP2C19 = CYP2C19 (Homo sapiens, UniProt P33261); experiment: Inhibition of CYP2C19 in human liver microsomes using benzylnirvanol as […] at 10 uM preincubated for 10 mins followed by NADPH addition measured after 15 mins by LC-MS/MS analysis relative to control; type: ADME, Microsome; settings: probe benzylnirvanol, time 25 min
Chain of CYP2C19 (P33261 whole entry): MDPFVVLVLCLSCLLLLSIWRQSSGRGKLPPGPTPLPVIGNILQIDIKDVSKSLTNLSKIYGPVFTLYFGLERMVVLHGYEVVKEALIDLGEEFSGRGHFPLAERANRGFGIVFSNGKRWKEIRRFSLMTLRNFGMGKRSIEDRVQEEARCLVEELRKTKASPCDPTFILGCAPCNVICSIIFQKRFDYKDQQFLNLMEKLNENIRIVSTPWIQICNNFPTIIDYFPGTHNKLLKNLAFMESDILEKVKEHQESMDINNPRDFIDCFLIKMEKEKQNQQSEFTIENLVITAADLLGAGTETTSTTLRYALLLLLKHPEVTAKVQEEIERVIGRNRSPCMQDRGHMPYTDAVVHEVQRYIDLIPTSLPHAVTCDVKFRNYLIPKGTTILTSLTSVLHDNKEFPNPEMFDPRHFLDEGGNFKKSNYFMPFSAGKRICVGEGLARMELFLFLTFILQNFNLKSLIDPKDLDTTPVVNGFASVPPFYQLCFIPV

CYP2D6 = CYP2D6 (Homo sapiens, UniProt P10635); experiment: Inhibition of CYP2D6 in human liver microsomes using quinidine as […] at 10 uM preincubated for 10 mins followed by NADPH addition measured after 15 mins by LC-MS/MS analysis relative to control; type: ADME, Microsome; settings: time 25 min
Chain of CYP2D6 (P10635 whole entry): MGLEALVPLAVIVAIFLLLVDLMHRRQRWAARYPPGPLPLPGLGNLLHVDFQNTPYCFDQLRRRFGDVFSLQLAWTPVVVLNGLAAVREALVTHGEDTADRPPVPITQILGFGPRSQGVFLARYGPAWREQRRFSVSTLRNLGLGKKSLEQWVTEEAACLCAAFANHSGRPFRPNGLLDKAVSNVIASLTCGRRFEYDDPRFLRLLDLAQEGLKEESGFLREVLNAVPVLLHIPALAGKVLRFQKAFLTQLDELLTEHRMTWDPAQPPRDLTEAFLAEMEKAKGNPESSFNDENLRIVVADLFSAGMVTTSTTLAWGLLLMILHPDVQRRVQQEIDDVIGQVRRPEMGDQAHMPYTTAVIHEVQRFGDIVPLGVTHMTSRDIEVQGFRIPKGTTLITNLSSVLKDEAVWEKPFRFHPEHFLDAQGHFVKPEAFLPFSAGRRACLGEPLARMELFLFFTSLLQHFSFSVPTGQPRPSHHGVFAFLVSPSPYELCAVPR

CYP3A4 = CYP3A4 (Homo sapiens, UniProt P08684); experiment: Inhibition of CYP3A4 in human liver microsomes using ketoconazole as […] at 10 uM preincubated for 10 mins followed by NADPH addition measured after 15 mins by LC-MS/MS analysis relative to control; type: ADME, Microsome; settings: probe ketoconazole, time 25 min
Chain of CYP3A4 (P08684 whole entry): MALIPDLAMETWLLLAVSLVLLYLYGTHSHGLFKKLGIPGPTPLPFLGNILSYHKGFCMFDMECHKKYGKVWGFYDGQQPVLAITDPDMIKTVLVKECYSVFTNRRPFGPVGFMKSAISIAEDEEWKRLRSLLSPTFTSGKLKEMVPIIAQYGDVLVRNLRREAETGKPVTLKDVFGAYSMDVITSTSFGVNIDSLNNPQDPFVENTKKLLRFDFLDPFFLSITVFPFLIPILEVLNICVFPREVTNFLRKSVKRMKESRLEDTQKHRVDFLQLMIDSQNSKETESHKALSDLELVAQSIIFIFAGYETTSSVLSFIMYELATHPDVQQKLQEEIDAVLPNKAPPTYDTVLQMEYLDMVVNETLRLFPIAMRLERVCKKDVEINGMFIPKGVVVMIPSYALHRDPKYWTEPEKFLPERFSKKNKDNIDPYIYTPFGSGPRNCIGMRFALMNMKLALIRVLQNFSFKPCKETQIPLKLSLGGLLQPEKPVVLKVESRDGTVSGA

HCT-116 [17] = experiment: Inhibition of colony formation in human HCT-116 cells assessed as reduction in colony number incubated for 14 days by crystal violet staining assay; type: functional, cell-based; settings: time 14.0 day
HCT-116 [18] = experiment: Antitumor activity against human HCT-116 cells xenografted in BALB/c mouse assessed as tumor growth inhibition at 50 mg/kg,po administrated once daily for 3 weeks; type: functional, organism-based

Row | Compound | IC50 (CDK9/cyclin T1) [nM] | GI50 (HCT-116 [1]) [nM] | GI50 (HT-29) [nM] | inhibition [2] [%] | further results
1 | CC(C)n1nnc2ccc(-c3ccnc(Nc4ccc(C(=O)N5CCCN(C)CC5)cn4)c3)cc21 | 3.05 | 280 | > 2000 | – | –
2 | CC(C)n1nnc2ccc(-c3ccnc(Nc4ccc(C(=O)N5CCCC5)cn4)c3)cc21 | 6.62 | 310 | 350 | – | –
3 | CC(C)n1nnc2ccc(-c3ccnc(Nc4cc(C(=O)N5CCNC(=O)C5)ccn4)c3)cc21 | 1.94 | 520 | > 2000 | – | –
4 | CC(C)(C)n1nnc2ccc(-c3ccnc(Nc4ccc(C(=O)N5CCOCC5)cn4)c3)cc21 | 9.73 | – | – | 98.9 | –
5 | O=C(c1ccc(Nc2cc(-c3ccc4nnn(C5CCCC5)c4c3)ccn2)c(C(F)(F)F)c1)N1CCOCC1 | – | – | – | 47.1 | –
6 | O=C(c1ccc(Nc2cc(-c3ccc4nnn(C5CCCCC5)c4c3)ccn2)cc1)N1CCOCC1 | – | – | – | 76 | –
7 | CC(C)n1nnc2ccc(-c3ccnc(Nc4cc(C(=O)N5CCCC5)ccn4)c3)cc21 | 1.32 | 80 | 420 | – | IC50 [3]: 161 nM; IC50 [4]: 134 nM; IC50 [5]: 35.6 nM; IC50 [6]: > 500 nM; IC50 [7]: 11.5 nM; IC50 [8]: > 500 nM; IC50 [9]: > 500 nM; IC50 [10]: 1.3 nM; IC50 [11]: > 500 nM; half-life at 100 µM [12]: 17.4 min; microsomal CLint at 100 µM [13]: 79.8 µL/min/mg; CLH [14]: 71.8 µL/min/mg; remaining at 1 h, 100 µM [15]: 9%; half-life [16]: > 289 min; inhibition at 0.25 h, 10 µM (CYP1A2): 12.2%; inhibition at 0.25 h, 10 µM (CYP2C9): 29.6%; inhibition at 0.25 h, 10 µM (CYP2C19): 56.1%; inhibition at 0.25 h, 10 µM (CYP2D6): 0%; inhibition at 0.25 h, 10 µM (CYP3A4): 0%
8 | CCN1CCN(C(=O)c2ccnc(Nc3cc(-c4ccc5nnn(C(C)C)c5c4)ccn3)c2)CC1 | 3.92 | 60 | 510 | – | –
9 | O=C(c1ccc(Nc2cc(-c3ccc4nnn(C5CCCC5)c4c3)ccn2)c(F)c1)N1CCOCC1 | – | – | – | 12.9 | –
10 | O=C(c1ccc(Nc2cc(-c3ccc4nnn(C5CCCCC5)c4c3)ccn2)c(C(F)(F)F)c1)N1CCOCC1 | – | – | – | 0.49 | –
11 | Cc1ncc(-c2ccnc(Nc3ccc(S(C)(=O)=O)cc3)n2)n1C(C)C [AZD-5438] | – | 450 | 960 | – | inhibition (HCT-116 [17]): Dose-Dependent Effect; Activity (HCT-116 [18]): Active
12 | CC(C)(C)n1nnc2ccc(-c3ccnc(Nc4ccc(C(=O)N5CCOCC5)cc4)c3)cc21 | – | – | – | 73.5 | –
13 | COc1cc(C(=O)N2CCOCC2)ccc1Nc1cc(-c2ccc3nnn(C(C)C)c3c2)ccn1 | – | – | – | 41.7 | –
14 | CC(C)n1nnc2ccc(-c3ccnc(Nc4ccc(C(=O)N5CCOCC5)cc4)c3)cc21 | – | – | – | 83 | –
15 | CC(C)(C)n1nnc2ccc(-c3ccnc(Nc4ccc(C(=O)N5CCOCC5)cc4F)c3)cc21 | – | – | – | 50.3 | –
16 | CC(C)n1nnc2ccc(-c3ccnc(Nc4ccc(C(=O)N5CCN(C)CC5)cn4)c3)cc21 | 4.39 | 250 | 230 | – | –

Row | Compound | IC50 (CDK9/cyclin T1) [nM] | GI50 (HCT-116 [1]) [nM] | GI50 (HT-29) [nM] | inhibition [2] [%] | further results
17 | O=C(c1ccc(Nc2cc(-c3ccc4nnn(C5CCCCC5)c4c3)ccn2)c(F)c1)N1CCOCC1 | – | – | – | 41.1 | –
18 | CC(C)n1nnc2ccc(-c3ccnc(Nc4ccc(C(=O)N5CCOCC5)cc4F)c3)cc21 | – | – | – | 65.3 | –
19 | COc1cc(C(=O)N2CCOCC2)ccc1Nc1cc(-c2ccc3nnn(C(C)(C)C)c3c2)ccn1 | – | – | – | 28.1 | –
20 | CC(C)n1nnc2ccc(-c3ccnc(Nc4ccc(C(=O)N5CCOCC5)cc4C(F)(F)F)c3)cc21 | – | – | – | 11.4 | –
21 | CC(C)n1nnc2ccc(-c3ccnc(Nc4ccc(C(=O)N5CCOCC5)cn4)c3)cc21 | 9.43 | 350 | 220 | 101 | –
22 | CC(C)N1CCN(C(=O)c2ccc(Nc3cc(-c4ccc5nnn(C(C)C)c5c4)ccn3)nc2)CC1 | 4.08 | 330 | 80 | – | –
23 | COc1cc(C(=O)N2CCOCC2)ccc1Nc1cc(-c2ccc3nnn(C4CCCC4)c3c2)ccn1 | – | – | – | 23.5 | –
24 | CC(C)(C)n1nnc2ccc(-c3ccnc(Nc4ccc(C(=O)N5CCOCC5)cc4C(F)(F)F)c3)cc21 | – | – | – | 6.51 | –
25 | CC(C)n1nnc2ccc(-c3ccnc(Nc4cc(C(=O)N5CCOCC5)ccn4)c3)cc21 | 3.06 | 70 | 650 | – | –
26 | O=C(c1ccc(Nc2cc(-c3ccc4nnn(C5CCCC5)c4c3)ccn2)nc1)N1CCOCC1 | 9.92 | – | – | 99.7 | –
27 | CC(C)n1nnc2ccc(-c3ccnc(Nc4ccc(C(=O)N5CCNC(=O)C5)cn4)c3)cc21 | 2.3 | 90 | 300 | – | –
28 | COc1cc(C(=O)N2CCOCC2)ccc1Nc1cc(-c2ccc3nnn(C4CCCCC4)c3c2)ccn1 | – | – | – | 16.3 | –
29 | O=C(c1ccc(Nc2cc(-c3ccc4nnn(C5CCCCC5)c4c3)ccn2)nc1)N1CCOCC1 | 13.2 | – | – | 98 | –
30 | CC(C)N1CCN(C(=O)c2ccnc(Nc3cc(-c4ccc5nnn(C(C)C)c5c4)ccn3)c2)CC1 | 3.37 | 40 | 410 | – | IC50 [3]: 125 nM; IC50 [4]: 167 nM; IC50 [5]: > 500 nM; IC50 [6]: > 500 nM; IC50 [7]: 33.1 nM; IC50 [8]: > 500 nM; IC50 [9]: > 500 nM; IC50 [10]: 3.3 nM; IC50 [11]: > 500 nM; half-life at 100 µM [12]: 7.8 min; microsomal CLint at 100 µM [13]: 177 µL/min/mg; CLH [14]: 158.9 µL/min/mg; remaining at 1 h, 100 µM [15]: 0.5%; half-life [16]: > 289 min; inhibition at 0.25 h, 10 µM (CYP1A2): 25.1%; inhibition at 0.25 h, 10 µM (CYP2C9): 56.3%; inhibition at 0.25 h, 10 µM (CYP2C19): 48.3%; inhibition at 0.25 h, 10 µM (CYP2D6): 7.1%; inhibition at 0.25 h, 10 µM (CYP3A4): 15.7%
31 | O=C(c1ccc(Nc2cc(-c3ccc4nnn(C5CCCC5)c4c3)ccn2)cc1)N1CCOCC1 | – | – | – | 81.2 | –
32 | CC(C)n1nnc2ccc(-c3ccnc(Nc4cc(C(=O)N5CCN(C)CC5)ccn4)c3)cc21 | 3.44 | 80 | 770 | – | –
